Source: patent US7179805B2, “7-amino alkylidenyl-heterocyclic quinolones and naphthyridones” (Janssen Pharmaceutica N.V., priority 2003, dated 2007)

How the values were obtained:
[1] = tested on: Streptococcus pneumoniae ATCC 49619; experiment: MIC, microdilution broth method (NCCLS); assay type: cell-based; conditions: ATCC49619; organism E: Streptococcus pneumoniae ATCC 49619; 35° C., 16–20 hours
Experimental: (§1) Minimal inhibitory concentration (MIC) has been an indicator of in vitro antibacterial activity widely used in the art. The in vitro antimicrobial activity of the compounds was determined by the microdilution broth method following the test method from the National Committee for Clinical Laboratory Standards (NCCLS). This method is described in the NCCLS Document M7-A4, Vol.17, No.2, “Methods for Dilution Antimicrobial Susceptibility Test for Bacteria that Grow Aerobically—Fourth Edition”, which is incorporated herein by reference.
(§2) In this method two-fold serial dilutions of drug in cation adjusted Mueller-Hinton broth are added to wells in microdilution trays. The test organisms are prepared by adjusting the turbidity of actively growing broth cultures so that the final concentration of test organism after it is added to the wells is approximately 5×10^4 CFU/well.
(§3) Following inoculation of the microdilution trays, the trays are incubated at 35° C. for 16–20 hours and then read. […] The amount of growth in the wells containing the test compound is compared with the amount of growth in the growth-control wells (no test compound) used in each tray. As set forth in Table 5, compounds of the present invention were tested against a variety of pathogenic bacteria resulting in a range of activities depending on the organism tested.

[2] = tested on: Staphylococcus aureus OC4172; experiment: MIC, microdilution broth method (NCCLS); assay type: cell-based; conditions: organism A: Staphylococcus aureus OC4172; 35° C., 16–20 hours
Experimental: as §1, §2, §3

Row | SMILES | MIC [1] [µg/mL] | MIC [2] [µg/mL]
1 | NCC(F)=C1CCN(c2cc3c(cc2F)c(=O)c(C(=O)O)cn3C2CC2)CC1.O=C(O)C(F)(F)F [Compound 5, 7-[4-(2-Amino-1-fluoro-ethylidene)piperidin-1-yl]-1-cyclopropyl-6-fluoro-4-oxo-1,4-dihydroquinoline-3-carboxylic acid trifluoroacetic acid salt] | 0.06 | –
2 | CNCC=C1CCN(c2c(F)cc3c(=O)c(C(=O)O)cn(C4CC4)c3c2OC)CC1.O=C(O)C(F)(F)F [Compound 221, 1-Cyclopropyl-6-fluoro-8-methoxy-7-[4-(2-methylaminoethylidene)piperidin-1-yl]-4-oxo-1,4-dihydroquinoline-3-carboxylic acid trifluoroacetic acid salt] | 0.5 | 0.12
